In publication PMC12375786, “Revolutionizing cancer treatment with Halomonas Aquamarina L-Glutaminase: insights from in vitro and computational studies” (Scientific Reports, 2025) one finds Km data, which are given here for one molecule.

In the test the test system is T1, L-GLS (L-glutaminase) of Halomonas aquamarina HBIM1.
T1 construct: gene glsA
The following applies: unit printed as mM^-1 (reciprocal, probably mM meant); pH and temperature of the kinetic run not given.

Consider `NC(=O)CC[C@H](N)C(=O)O` [L-glutamine], for which the Km was 0.198 mM⁻¹.
